What was measured:
Experiment in all cases: Antifungal growth inhibition in Sabouraud's liquid medium
Format in all cases: cell-based
Cryptococcus neoformans = conditions: Cr.n., tested at 100, 10, 1 μg/ml; for MIC: Cryptococcus neoformans, 336 h, read-out: Concentrations in μg/ml for 100% Inhibition of Growth
Protocol: (§1) Tests for the control of fungal organisms were performed using Sabouraud's liquid medium (1 g. of neopeptone Difco and 2 g. of glucose Difco per 100 ml. distilled water) in test tubes, each containing 4.5 ml. of liquid medium, autoclaved at 120° C for 15 minutes. The imidazolium salts were prepared for testing by dissolving in 50% ethanol to a concentration of 20 mg./ml. and thereafter diluting with sterile distilled water to obtain a concentration of 10 mg./ml. Successive decimal dilutions were then made with sterile distilled water to prepare a series of test solutions. In carrying out the test, 0.5 ml. of one of the test solutions is added to 4.5 ml. of Sabouraud's liquid medium to obtain a test medium. In this manner, from appropriate test solution, test media containing 100 μg, 10 μg and 1 μg of imidazolium salt per milliliter of medium were obtained.
(§2) Control tubes were prepared by adding 0.5 ml. of sterile distilled water to 4.5 ml. of medium. Ethanol was also added to simulate the amount which would be present in the test media. Filamentous fungi were incubated at 25° C for two to three weeks. A square block of side 2 mm. was excised and inoculated into the liquid medium. A 3-day old culture on Sabouraud's liquid medium was used for yeasts. The inoculum was 0.05 ml. per tube. All cultures were incubated at 25° C for 14 days.

Microsporum canis = conditions: M.c., tested at 100, 10, 1 μg/ml; for MIC: Microsporum canis, 336 h, read-out: Concentrations in μg/ml for 100% Inhibition of Growth
Protocol: as §1, §2

[1] = system: Ctenomyces mentagrophytes; conditions: Ct.m., tested at 100, 10, 1 μg/ml; for MIC: Trichophyton mentagrophytes, 336 h, read-out: Concentrations in μg/ml for 100% Inhibition of Growth
Protocol: as §1, §2

Trichophyton rubrum = conditions: Tr.r., tested at 100, 10, 1 μg/ml; for MIC: Trichophyton rubrum, 336 h, read-out: Concentrations in μg/ml for 100% Inhibition of Growth
Protocol: as §1, §2

| Compound | MIC (Cryptococcus neoformans) | MIC (Microsporum canis) | MIC [1] | MIC (Trichophyton rubrum) | Concentrations in μg/ml for 100% Inhibition of Growth (Cryptococcus neoformans) | Concentrations in μg/ml for 100% Inhibition of Growth (Microsporum canis) | Concentrations in μg/ml for 100% Inhibition of Growth [1] | Concentrations in μg/ml for 100% Inhibition of Growth (Trichophyton rubrum) |
| --- | --- | --- | --- | --- | --- | --- | --- | --- |
| Cc1cccc(C)c1N(C)C(=O)C[n+]1ccn(CC(OCc2ccc(Cl)cc2Cl)c2ccc(Cl)cc2Cl)c1 (stereo not drawn) | 10 µg/mL | 10 µg/mL | 10 µg/mL | 1 µg/mL | – | – | – | – |
| CC(C(=O)Nc1ccccc1Cl)[n+]1ccn(CC(OCc2ccc(Cl)cc2Cl)c2ccc(Cl)cc2Cl)c1 (stereo not drawn) | 100 µg/mL | 10 µg/mL | 10 µg/mL | 1 µg/mL | – | – | – | – |
| Cc1cccc(Cl)c1CNC(=O)C(C)[n+]1ccn(CC(OCc2ccc(Cl)cc2Cl)c2ccc(Cl)cc2Cl)c1 (stereo not drawn) | 100 µg/mL | 1 µg/mL | 1 µg/mL | 1 µg/mL | – | – | – | – |
| O=C(C[n+]1ccn(CC(OCc2ccc(Cl)cc2Cl)c2ccc(Cl)cc2Cl)c1)c1cccs1 (stereo not drawn) | 10 µg/mL | 10 µg/mL | 1 µg/mL | 1 µg/mL | – | – | – | – |
| O=C(C[n+]1ccn(CC(OCc2ccc(Cl)cc2Cl)c2ccc(Cl)cc2Cl)c1)c1ccc(Cl)s1 (stereo not drawn) | 10 µg/mL | 1 µg/mL | 1 µg/mL | 1 µg/mL | – | – | – | – |
| OC(C[n+]1ccn(CC(OCc2ccc(Cl)cc2Cl)c2ccc(Cl)cc2Cl)c1)c1ccc(Cl)cc1 (stereo not drawn) | 10 µg/mL | 10 µg/mL | 1 µg/mL | 1 µg/mL | – | – | – | – |
| 1-(β-butoxy2,4-dichlorophenethyl)-3-[p-chloro-a-(p-fluorophenyl)benzyl]imidazolium chloride | – | – | – | – | 100 µg/mL | 10 µg/mL | 10 µg/mL | 10 µg/mL |
| Cc1ccccc1NC(=O)C[n+]1ccn(CC(OCc2ccc(Cl)cc2)c2ccc(Cl)cc2Cl)c1 (stereo not drawn) [2,4(Cl)2C6H3/CH2C6H4pCl/CH2CONHoCH3, 1-[2,4-Dichloro-β-(p-chlorobenzyloxy)phenethyl]-3-(N-o-tolylcarbamoymethyl)imidazolium cholride] | 10 µg/mL | 10 µg/mL | 1 µg/mL | 1 µg/mL | – | – | – | – |
| C=CCOC(Cn1cc[n+](CC(=O)c2ccc(F)cc2)c1)c1ccc(Cl)cc1Cl (stereo not drawn) [2,4(Cl)2C6H3/CH2CHCH2/CH2COC6H4pF, 1-[β-(alloyloxy)-2,4-dichlorophenethyl]-3-(p-fluorophenacyl)imidazolium chloride] | 100 µg/mL | 10 µg/mL | 10 µg/mL | 10 µg/mL | – | – | – | – |
| OC(C[n+]1ccn(CC(OCc2ccc(Cl)cc2)c2ccc(Cl)cc2Cl)c1)c1ccc(Cl)cc1 (stereo not drawn) [2,4(Cl)2C6H3/drawing 65/CH2CHOHC6H4pCl] | 100 µg/mL | 1 µg/mL | 1 µg/mL | 1 µg/mL | – | – | – | – |
| O=C(C[n+]1ccn(CC(OCc2ccc(Cl)cc2)c2ccc(Cl)cc2Cl)c1)c1ccc(F)cc1 (stereo not drawn) [2,4(Cl)2C6H3/drawing 65/CH2COC6H4pF] | 10 µg/mL | 1 µg/mL | 1 µg/mL | 1 µg/mL | – | – | – | – |
| OC(C[n+]1ccn(CC(OCc2c(Cl)cccc2Cl)c2ccc(Cl)cc2Cl)c1)c1ccc(Cl)cc1 (stereo not drawn) [2,4(Cl)2C6H3/drawing 66/CH2CHOHC6H4pCl] | 10 µg/mL | 10 µg/mL | 10 µg/mL | 1 µg/mL | – | – | – | – |
| O=C(C[n+]1ccn(CC(OCc2c(Cl)cccc2Cl)c2ccc(Cl)cc2Cl)c1)c1ccc(F)cc1 (stereo not drawn) [2,4(Cl)2C6H3/drawing 66/CH2COC6H4pF] | 10 µg/mL | 10 µg/mL | 10 µg/mL | 1 µg/mL | – | – | – | – |
| CCCCOC(Cn1cc[n+](CC(=O)Nc2ccc(F)cc2)c1)c1ccc(Cl)cc1Cl (stereo not drawn) [2,4(Cl)2C6H3/nC4H9/CH2CONHC6H4pF, 1-(β-Butoxy-2,4-dichlorophenethyl)-3-[N-(p-fluorophenyl)carbamoylmethyl]imidazolium chloride] | 100 µg/mL | 10 µg/mL | 10 µg/mL | 10 µg/mL | – | – | – | – |
| O=C(CCn1cc[n+](CC(OCc2ccc(Cl)cc2Cl)c2ccc(Cl)cc2Cl)c1)c1ccc(Br)cc1.[Cl-] (stereo not drawn) [(CH2)2COC6H4pBr, 1-[2-(p-Bromobenzoyl)ethyl]-3-[2,4-dichloro-β-(2,4-dichlorobenzyloxy)phenethyl]imidazolium chloride] | 1 µg/mL | 10 µg/mL | 1 µg/mL | 1 µg/mL | – | – | – | – |
| O=C(CCn1cc[n+](CC(OCc2ccc(Cl)cc2Cl)c2ccc(Cl)cc2Cl)c1)c1ccc(Cl)cc1.[Cl-] (stereo not drawn) [(CH2)2COC6H4pCl, 1-[2-(p-Chlorobenzoyl)ethyl]-3-[2,4-dichloro-β-(2,4dichlorobenzyloxy)phenethyl]imidazolium chloride] | 1 µg/mL | 1 µg/mL | 1 µg/mL | 1 µg/mL | – | – | – | – |
| O=C(CC[n+]1ccn(CC(OCc2ccc(Cl)cc2Cl)c2ccc(Cl)cc2Cl)c1)Nc1ccccc1[N+](=O)[O-].[Cl-] (stereo not drawn) [(CH2)2CONHC6H4oNO2, 1-[2,4-Dichloro-β-(2,4-dichlorobenzyloxy)-phenethyl]-3-{2-[N-(o-nitrophenyl)carbamoyl]ethyl}imidazolium chloride] | 100 µg/mL | 10 µg/mL | 1 µg/mL | 1 µg/mL | – | – | – | – |
| Clc1ccc(NCCn2cc[n+](CC(OCc3ccc(Cl)cc3Cl)c3ccc(Cl)cc3Cl)c2)cc1.[Br-] (stereo not drawn) [(CH2)2NHC6H4pCl, 1-[2-(p-chloroanilino)ethyl]-3-[2,4-dichloro-β-(2,4-dichlorobenzyloxy)phenethyl]imidazolium bromide] | 1 µg/mL | 10 µg/mL | 10 µg/mL | 10 µg/mL | – | – | – | – |
| Cc1cccc(C)c1OCC[n+]1ccn(CC(OCc2ccc(Cl)cc2Cl)c2ccc(Cl)cc2Cl)c1.[Br-] (stereo not drawn) [(CH2)2OC6H32,6(CH3)2, 1-[2,4-Dichloro-β-(2,4-dichlorobenzyloxy)phenethyl]-3-[2-(2,6-xylyloxy)ethyl]imidazolium bromide] | 1 µg/mL | 10 µg/mL | 1 µg/mL | 10 µg/mL | – | – | – | – |
| Clc1ccc(COC(Cn2cc[n+](CCOc3ccc4ccccc4c3)c2)c2ccc(Cl)cc2Cl)c(Cl)c1.O.[Br-] (stereo not drawn) [(CH2)2OC10H7, 1-[2,4-Dichloro-β-(2,4-dichlorobenzyloxy)phenethyl]3-[2-(2-naphthyloxy)ethyl]imidazolium bromide hydrate] | 1 µg/mL | 10 µg/mL | 10 µg/mL | 10 µg/mL | – | – | – | – |
| Clc1ccc(COC(Cn2cc[n+](CCCOc3ccc4ccccc4c3)c2)c2ccc(Cl)cc2Cl)c(Cl)c1.O.[Cl-] (stereo not drawn) [(CH2)3OC10H7, 1-[2,4-Dichloro-β-(2,4-dichlorobenzyloxy)phenethyl]-3-[3-(2-naphthyloxy)propyl]imidazolium chloride hydrate] | 100 µg/mL | 10 µg/mL | 10 µg/mL | 10 µg/mL | – | – | – | – |
| Clc1ccc(C=CCn2cc[n+](CC(OCc3ccc(Cl)cc3Cl)c3ccc(Cl)cc3Cl)c2)c(Cl)c1.[Cl-] (stereo not drawn) [CH2CHCHC6H3s,4(Cl)2, 1-(2,4-dichlorocinnamyl)-3-[2,4-dichloro-β-(2,4-dichlorobenzyloxy)phenethyl]-imidazolium chloride] | 10 µg/mL | 10 µg/mL | 1 µg/mL | 10 µg/mL | – | – | – | – |
| Clc1ccc(COC(C[n+]2ccn(CC=Cc3ccccc3)c2)c2ccc(Cl)cc2Cl)c(Cl)c1.[Cl-] (stereo not drawn) [CH2CHCHC6H5, 1-Cinnamyl-3-[2,4-dichloro-β-(2,4-dichlorobenzyloxy)phenethyl]imidazolium chloride] | 100 µg/mL | 10 µg/mL | 10 µg/mL | 1 µg/mL | – | – | – | – |
| COc1cccc(C(=O)C[n+]2ccn(CC(OCc3ccc(Cl)cc3Cl)c3ccc(Cl)cc3Cl)c2)c1.[Br-] (stereo not drawn) [CH2COC6H4mOCH3, 1-[2,4-dichloro-β-(2,4-dichlorobenzyloxy)phenethyl]-3-(m-methoxyphenacyl)imidazolium bromide] | 10 µg/mL | 10 µg/mL | 1 µg/mL | 1 µg/mL | – | – | – | – |
| COc1ccc(C(=O)C[n+]2ccn(CC(OCc3ccc(Cl)cc3Cl)c3ccc(Cl)cc3Cl)c2)cc1.[Br-] (stereo not drawn) [CH2COC6H4p(OCH3), 1-[2,4-Dichloro-β-(2,4-dichlorobenzyloxy)phenethyl]-3-(p-methoxyphenacyl)imidazolium bromide] | 10 µg/mL | 10 µg/mL | 10 µg/mL | 1 µg/mL | – | – | – | – |
| O=C(Cn1cc[n+](CC(OCc2ccc(Cl)cc2Cl)c2ccc(Cl)cc2Cl)c1)c1ccc(Br)cc1.[Cl-] (stereo not drawn) [CH2COC6H4pBr, 1-(p-bromobenzoylmethyl)-3-[2,4-dichloro-β-(2,4-dichlorobenzyloxy)phenethyl]imidazolium chloride] | 1 µg/mL | 10 µg/mL | 1 µg/mL | 1 µg/mL | – | – | – | – |
| O=C(Cn1cc[n+](CC(OCc2ccc(Cl)cc2Cl)c2ccc(Cl)cc2Cl)c1)c1ccc(Cl)cc1.[Br-] (stereo not drawn) [CH2COC6H4pCl, 1-(p-chlorobenzoylmethyl)-3-[2,4-dichloro-β-(2,4-dichlorobenzyloxy)phenethyl]imidazolium bromide] | 1 µg/mL | 1 µg/mL | 1 µg/mL | 1 µg/mL | – | – | – | – |
